Experiment [1] deals with T1, GRF receptors ([^125 I-Tyr^10 ]hGRF(1-44)NH2 binding sites in rat adenopituitary) (Rattus norvegicus, UniProt Q02644).
T1 construct: from tissue; host or cells: rat anterior pituitary homogenate
T1 sequence (Q02644 23-423 isoform Q02644-2 limits assumed): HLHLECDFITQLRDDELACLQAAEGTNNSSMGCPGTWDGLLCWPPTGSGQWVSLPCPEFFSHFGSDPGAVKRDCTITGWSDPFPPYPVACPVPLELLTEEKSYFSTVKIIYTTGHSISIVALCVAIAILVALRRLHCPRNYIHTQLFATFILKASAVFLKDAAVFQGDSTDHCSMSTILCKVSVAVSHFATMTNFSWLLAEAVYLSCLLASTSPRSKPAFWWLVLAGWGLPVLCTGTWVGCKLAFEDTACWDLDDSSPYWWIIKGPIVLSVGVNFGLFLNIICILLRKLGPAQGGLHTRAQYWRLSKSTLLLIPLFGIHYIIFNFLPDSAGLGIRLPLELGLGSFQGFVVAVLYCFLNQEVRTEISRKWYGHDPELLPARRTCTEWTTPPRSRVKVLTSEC
Briefly: Competitive binding assay with [^125 I-Tyr^10 ]hGRF(1-44)NH2 on anterior pituitary homogenates. Conditions: for IC50: mean±SD of 2 or mean±SE of 3 experiments for analogues, mean±SE of 11 for hGRF(1-29)NH2; for Relative affinity: ratio IC50 of hGRF(1-29)NH2 /IC50 analogue. The procedure: The binding of [^125 I-Tyr^10 ]hGRF(1-44)NH2 was performed on anterior pituitary homogenates as previously described (Gaudreau P. et al., J. Biol. Chem., 1992, 35:1864-1869). Briefly, anterior pituitaries (pit.) were dissected out, rinsed and homogenized for 8 sec with a Micro Ultrasonic Cell Disrupter™, in ice-cold 50 mM Tris-HCl buffer, pH 7.4, containing 5 mM MgCl2 and 5 mM EDTA (1 pit./0.5 ml). These homogenates were used immediately. Competition studies were performed using 35-50 pM [^125 I-Tyr^10 ]hGRF(1-44)NH2 as radio-ligand,50 μl of homogenate (70 to 75 μg of protein), and increasing concentrations of Nε-CF-[Lys^31 ]hGRF or other GRF analogues (0-1000 nM) or with 2.4 μM rGRF(1-29)NH2 for determination of non-specific binding, in a total volume of 300 μl of Tris-HCl buffer, pH 7.4, containing 5 mM EDTA, 5 mM MgCl2 and 0.42% BSA. Incubations were carried out at 23° C. for 60 min and stopped by centrifugation (12,000 g, 5 min, at 4° C.). The radioactivity content in the pellet was measured by gamma counting. The affinity of hGRF(1-29)NH2 was tested in each experiment to assess the validity of the assay and determine the relative affinity of the analogues. […] The Hill values indicate that all these peptides bind to the high and low affinity GRF binding sites found in the anterior pituitary.

Experiment [2] concerns the target T2, GRF receptor of rat adenopituitary (rat, UniProt Q02644-2).
T2 sequence: T1 sequence (Q02644 23-423 isoform Q02644-2 limits assumed)
Briefly: displacement of 125I-Tyr10 hGRF(1-44)NH2 from rat anterior pituitary homogenate.

Here are results for 10 compounds from patent US5854216A, “Marker for growth hormone-releasing factor receptors” (Universite de Montreal, priority 1996, dated 1998).

The IC50 is the point on the concentration scale where inhibition reaches its midpoint. Higher therefore signals lower potency.

Square brackets hold non-standard residues; d marks the D form. Peptide text beside a SMILES is read from it. Phe(4-NO2) = N[C@@H](Cc1ccc([N+](=O)[O-])cc1)C(=O)O; Bpa = N[C@@H](Cc1ccc(C(=O)c2ccccc2)cc1)C(=O)O; Nle = CCCC[C@H](N)C(=O)O

As to `CC[C@H](C)[C@H](NC(=O)[C@H](C)NC(=O)[C@H](CC(=O)O)NC(=O)[C@@H](C)NC(=O)[C@@H](N)Cc1ccc(O)cc1)C(=O)N[C@@H](Cc1ccccc1)C(=O)N[C@H](C(=O)N[C@@H](C)C(=O)N[C@@H](CO)C(=O)N[C@@H](Cc1ccc(O)cc1)C(=O)N[C@@H](CCCNC(=N)N)C(=O)N[C@@H](CCCCN)C(=O)N[C@H](C(=O)N[C@@H](CC(C)C)C(=O)N[C@@H](C)C(=O)N[C@@H](CCC(N)=O)C(=O)N[C@@H](CC(C)C)C(=O)N[C@@H](CO)C(=O)N[C@@H](C)C(=O)N[C@@H](CCCNC(=N)N)C(=O)N[C@@H](CCCCN)C(=O)N[C@@H](CCCCN)C(=O)N[C@@H](CC(C)C)C(=O)N[C@@H](CCC(N)=O)C(=O)N[C@@H](CC(=O)O)C(=O)N[C@H](C(=O)N[C@@H](CCSC)C(=O)N[C@@H](CO)C(=O)N[C@@H](CCCNC(=N)N)C(N)=O)[C@@H](C)CC)C(C)C)[C@@H](C)O` [D-Ala^2, Ala^8, Ala^15, Lys^22] (H-Y[dA]DAIFTASYRKVLAQLSARKKLQDIMSR-NH2; N-terminus assumed), in experiment [1] (Table 11), the Hill coef. was 0.53 ± 0.06, the concentration for half-maximal inhibition (IC50) was found to be 0.18 ± 0.08 nM and the Relative affinity is 1333 ± 31%.
For `CC[C@H](C)[C@H](NC(=O)[C@H](C)NC(=O)[C@H](CC(=O)O)NC(=O)[C@@H](C)NC(=O)[C@@H](N)Cc1ccc(O)cc1)C(=O)N[C@@H](Cc1ccccc1)C(=O)N[C@H](C(=O)N[C@@H](CC(N)=O)C(=O)N[C@@H](CO)C(=O)N[C@H](Cc1ccc(O)cc1)C(=O)N[C@@H](CCCNC(=N)N)C(=O)N[C@@H](CCCCN)C(=O)N[C@H](C(=O)N[C@@H](CC(C)C)C(=O)N[C@H](C)C(=O)N[C@@H](CCC(N)=O)C(=O)N[C@@H](CC(C)C)C(=O)N[C@@H](CO)C(=O)N[C@@H](C)C(=O)N[C@@H](CCCNC(=N)N)C(=O)N[C@@H](CCCCN)C(=O)N[C@@H](CCCCN)C(=O)N[C@@H](CC(C)C)C(=O)N[C@@H](CCC(N)=O)C(=O)N[C@@H](CC(=O)O)C(=O)N[C@H](C(=O)N[C@@H](CCSC)C(=O)N[C@@H](CO)C(=O)N[C@@H](CCCNC(=N)N)C(N)=O)[C@@H](C)CC)C(C)C)[C@@H](C)O` [D-Ala^2, D-Tyr^10, D-Ala^15, Lys^22] (H-Y[dA]DAIFTNS[dY]RKVL[dA]QLSARKKLQDIMSR-NH2), the IC50 in experiment [1] (Table 11) was 2.49 ± 0.98 nM.
Same read-out and setting: the result for `CC[C@H](C)[C@H](NC(=O)[C@H](C)NC(=O)[C@H](CC(=O)O)NC(=O)[C@H](C)NC(=O)[C@@H](N)Cc1ccc(O)cc1)C(=O)N[C@@H](Cc1ccccc1)C(=O)N[C@H](C(=O)N[C@@H](CC(N)=O)C(=O)N[C@@H](CO)C(=O)N[C@@H](Cc1ccc(O)cc1)C(=O)N[C@@H](CCCNC(=N)N)C(=O)N[C@@H](CCCCN)C(=O)N[C@H](C(=O)N[C@@H](CC(C)C)C(=O)NCC(=O)N[C@@H](CCC(N)=O)C(=O)N[C@@H](CC(C)C)C(=O)N[C@@H](CO)C(=O)N[C@@H](C)C(=O)N[C@@H](CCCNC(=N)N)C(=O)N[C@@H](CCCCN)C(=O)N[C@@H](CC(C)C)C(=O)N[C@@H](CC(C)C)C(=O)N[C@@H](CCC(N)=O)C(=O)N[C@@H](CC(=O)O)C(=O)N[C@H](C(=O)N[C@@H](CCSC)C(=O)N[C@@H](CO)C(=O)N[C@@H](CCCNC(=N)N)C(=O)NCCCCCCCC(=O)N[C@@H](CS)C(N)=O)[C@@H](C)CC)C(C)C)[C@@H](C)O` [Octanoyl^30, Cys^31, [octanoyl^30,Cys^31] hGRF(1-29)NH2] reads 6.84 ± 2.12 nM.
In the case of `CC[C@H](C)[C@H](NC(=O)[C@H](C)NC(=O)[C@H](CC(=O)O)NC(=O)[C@@H](C)NC(=O)[C@@H](N)Cc1ccc(O)cc1)C(=O)N[C@@H](Cc1ccccc1)C(=O)N[C@H](C(=O)N[C@@H](CC(N)=O)C(=O)N[C@@H](CO)C(=O)N[C@H](Cc1ccc(O)cc1)C(=O)N[C@@H](CCCNC(=N)N)C(=O)N[C@@H](CCCCN)C(=O)N[C@H](C(=O)N[C@@H](CC(C)C)C(=O)NCC(=O)N[C@@H](CCC(N)=O)C(=O)N[C@@H](CC(C)C)C(=O)N[C@@H](CO)C(=O)N[C@@H](C)C(=O)N[C@@H](CCCNC(=N)N)C(=O)N[C@@H](CCCCN)C(=O)N[C@@H](CC(C)C)C(=O)N[C@@H](CC(C)C)C(=O)N[C@@H](CCC(N)=O)C(=O)N[C@@H](CC(=O)O)C(=O)N[C@H](C(=O)N[C@@H](CCSC)C(=O)N[C@@H](CO)C(=O)N[C@@H](CCCNC(=N)N)C(N)=O)[C@@H](C)CC)C(C)C)[C@@H](C)O` [D-Ala^2, D-Tyr^10], in experiment [1] (Table 11), the Hill coef. turned out to be 0.41 ± 0.02 and the Relative affinity is 25 ± 3%. In experiment [1] (rat adenopituitary), the “biological activity compared to that of native GRF” value was “preserved or increased”.
For `CC[C@H](C)[C@H](NC(=O)[C@H](C)NC(=O)[C@H](CC(=O)O)NC(=O)[C@H](C)NC(=O)[C@@H](N)Cc1ccc(O)cc1)C(=O)N[C@@H](Cc1ccccc1)C(=O)N[C@H](C(=O)N[C@@H](CC(N)=O)C(=O)N[C@@H](Cc1ccc([N+](=O)[O-])cc1)C(=O)N[C@@H](Cc1ccc(O)cc1)C(=O)N[C@@H](CCCNC(=N)N)C(=O)N[C@@H](CCCCN)C(=O)N[C@H](C(=O)N[C@@H](CC(C)C)C(=O)NCC(=O)N[C@@H](CCC(N)=O)C(=O)N[C@@H](CC(C)C)C(=O)N[C@@H](CO)C(=O)N[C@@H](C)C(=O)N[C@@H](CCCNC(=N)N)C(=O)N[C@@H](CCCCN)C(=O)N[C@@H](CC(C)C)C(=O)N[C@@H](CC(C)C)C(=O)N[C@@H](CCC(N)=O)C(=O)N[C@@H](CC(=O)O)C(=O)N[C@H](C(=O)N[C@@H](CCSC)C(=O)N[C@@H](CO)C(=O)N[C@@H](CCCNC(=N)N)C(N)=O)[C@@H](C)CC)C(C)C)[C@@H](C)O` [npa^9, [4'-nitro-phenylanalylalanine^9]hGRF(1-29)NH2] (H-YADAIFTN[Phe(4-NO2)]YRKVLGQLSARKLLQDIMSR-NH2), the “IC50 (in words)” value in experiment [1] is listed as “low nanomolar range”.
With `CCCC[C@H](NC(=O)[C@@H](NC(=O)[C@H](CC(=O)O)NC(=O)[C@H](CCC(N)=O)NC(=O)[C@H](CC(C)C)NC(=O)[C@H](CC(C)C)NC(=O)[C@H](CCCCN)NC(=O)[C@H](CCCNC(=N)N)NC(=O)[C@H](C)NC(=O)[C@H](CO)NC(=O)[C@H](CC(C)C)NC(=O)[C@H](CCC(N)=O)NC(=O)CNC(=O)[C@H](CC(C)C)NC(=O)[C@@H](NC(=O)[C@H](CCCCN)NC(=O)[C@H](CCCNC(=N)N)NC(=O)[C@H](Cc1ccc(O)cc1)NC(=O)[C@H](Cc1ccc(C(=O)c2ccccc2)cc1)NC(=O)[C@H](CC(N)=O)NC(=O)[C@@H](NC(=O)[C@H](Cc1ccccc1)NC(=O)[C@@H](NC(=O)[C@H](C)NC(=O)[C@H](CC(=O)O)NC(=O)[C@H](C)NC(=O)[C@@H](N)Cc1c[nH]cn1)[C@@H](C)CC)[C@@H](C)O)C(C)C)[C@@H](C)CC)C(=O)N[C@@H](CO)C(=O)N[C@@H](CCCNC(=N)N)C(N)=O` [His^1, bpa^9, Nle^27] (H-HADAIFTN[Bpa]YRKVLGQLSARKLLQDI[Nle]SR-NH2), in experiment [1] (Table 7), the Hill coef. is reported as 0.70 ± 0.06 and the Relative affinity worked out at 61.0 ± 7%.
In experiment [2], “D-Ala^2,D-Tyr^10, D-Lys^21 ! hGRF(1-29)NH2 (from UniProt P01286) (peptide)” came in with an IC50 of 11.6 nM and a Relative affinity (%) against hGRF(1-29)NH2 of 21%.
In experiment [2], “D-Ala^2,D-Tyr^10,Lys^22 ! hGRF(1-29)NH2 (from UniProt P01286) (peptide)” displayed a Relative affinity (%) against hGRF(1-29)NH2 of 490%.
In the case of “D-Ala^2, Ala^8, D-Tyr^10, Ala^15, D-Lys^21, Lys^22 analogue of hGRF(1-29)NH2 (Table 11, No. 14) (from UniProt P01286) (peptide)”, in experiment [2], the IC50 was found to be 0.48 nM and the Relative affinity (%) against hGRF(1-29)NH2 turned out to be 500%.
“octanoyl^30,Cys^31 ! hGRF(1-29)NH2 (from UniProt P01286) (peptide)” yielded a Relative affinity (%) against hGRF(1-29)NH2 in experiment [2] of 35%.
